The values below come from patent US20090306046A1, “METHOD OF TREATMENT OF HORMONE DEPLETION INDUCED VASOMOTOR SYMPTOMS” (N.V. ORGANON, priority 2005, published 2009).

One assay relates to women with breast cancer. As to conditions: results of 15 randomized controlled trials; cited from earlier work.
For another assay, the system named is postmenopausal women. The assay is described as follows: Weaning from hormone therapy with mirtazapine as non-hormonal therapy for vasomotor symptoms. The note with it: 15 mg by mouth at bedtime for 6 months from the day hormone therapy is discontinued; postmenopausal women 60-65 year old; in comparison to women on hormone therapy. It is filed as in vivo. The method, then: Mirtazapine is used as non-hormonal therapy for vasomotor symptoms. Treatment dose is 15 mg. The length of weaning is 6 months. In this example subjects for treatment have the following characteristics: Postmenopausal women of 60-65 year old who have been on hormone therapy for the treatment of vasomotor symptoms associated with menopause for at least 2 years. They have either a need or a desire to discontinue hormone therapy. They are informed of the risks of mirtazapine. They are informed that successful use of mirtazapine for the relief of vasomotor symptoms associated with menopause has been reported in the medical literature. This method should not be used for women who have a condition or take medications that preclude the use of mirtazapine. A person treated according to this example is instructed to take 15 mg mirtazapine by mouth on the day that they are to discontinue hormone therapy. Mirtazapine is prescribed to be taken at bedtime and after all their evening rituals are done so that they can lay down right after taking mirtazapine. They are instructed to continue taking 15 mg of mirtazapine at bedtime for 6 months after which mirtazapine administration is discontinued. […] Method to measure hot flash frequency: by self rating or according to the method described by Freedman et al J. Clin Endocrin & Metabolism, Vol 80, pp 2354-2358.

Structures are written as SMILES.

Turning to `Clc1cccc(Cl)c1N=C1NCCN1` [clonidine], in the assay with women with breast cancer, the “measures of hot flashes” value was “significantly improved”.

Consider `CC(=O)O[C@]1(C(C)=O)CC[C@H]2[C@@H]3C=C(C)C4=CC(=O)CC[C@]4(C)[C@H]3CC[C@@]21C` [megestrol acetate], for which, in the assay with women with breast cancer, the “measures of hot flashes” value is reported as “significantly improved”. For the compound `COc1ccc(C(CN(C)C)C2(O)CCCCC2)cc1` (stereo not shown) [venlafaxine], the “measures of hot flashes” value in the assay on women with breast cancer is given as “significantly improved”. As for `CN1CCN2c3ncccc3Cc3ccccc3C2C1` (racemic) [Mirtazapine], in the assay with postmenopausal women, the withdrawal vasomotor symptoms entry is on record as “absent or strongly reduced”.
